In patent US4471113A, “Prodrugs based on phospholipid-nucleoside conjugates” (priority 1982, dated 1984):
Where two headings read alike, the source gives them in different places.

What was measured:
deaminase enzymes = conditions: cited from earlier work; for catabolism via deaminase enzymes: to ineffective metabolites; for protection of parent drug from catabolic degradation: lipophilic fatty acid esters
[1] = tested on: mouse myeloma MPC-11 (subclone 66.2) cells; experiment: In vitro antiproliferative activity against mouse myeloma MPC-11 (subclone 66.2) cell line; format: cell-based
[2] = Solubilization of suspensions by sonication; format: physicochemical; conditions: aqueous suspension at room temperature
Excerpt: In the study of biological activity of the compositions of Examples 1f and II-VII, it was first necessary to prepare solutions at room temperature. Suspensions of the compounds of Examples 1f and II-VII were all subjected to known sonication techniques in order to aid solubilization. […] Finally, the best means of solubilization was achieved by mixing the sample with araCDP-L-dipalmitin prior to sonication. In this fashion, mixtures having ratios (by weight) of the mono- to diphosphate linked derivatives from 1:2 through to 3:1 were made up and such mixtures were used for the in vitro inhibition studies.

[3] = in vivo studies; cited from earlier work
[4] = in vivo; cited from earlier work
[5] = samples made up in 0.9% saline/0.1 mM Tris, pH 7.1, read-out: ED50 (the source's name)
[6] = solvent not stated, read-out: dose required for 50% inhibition of growth of cells in tissue culture (ED50)
[7] = samples made up in H2O, read-out: ED50 (the source's name)

Nc1ncnc2c1ncn2[C@@H]1O[C@H](CO)[C@@H](O)[C@@H]1O [araA, 9-β-D-arabinofuranosyladenine]
catabolism via deaminase enzymes (deaminase enzymes): rapid catabolism

Nc1ccn([C@@H]2O[C@H](COC(=O)C34CC5CC(CC(C5)C3)C4)[C@@H](O)[C@@H]2O)c(=O)n1 [5'-O-adamantoyl-araC]
protection of parent drug from catabolic degradation (deaminase enzymes): protected the parent drug from catabolic degradation

CCCCCCCCCCCCCCCCCC(=O)OC[C@H](COP(=O)(O)OP(=O)(O)OC[C@H]1O[C@@H](n2ccc(N)nc2=O)[C@@H](O)[C@@H]1O)OC(=O)CCCCCCCCCCCCCCCCC [araCDP-L-distearin, 1-β-D-Arabinofuranosylcytosine-5'-diphosphate-L-1,2-distearin]
IC50 [1, 5]: 168 µM | IC50 [1, 6]: 195 µM | solubilization by sonication [2]: remained slightly opalescent

Nc1ccn([C@@H]2O[C@H](CO)[C@@H](O)[C@@H]2O)c(=O)n1 [araC, 1-β-D-arabinofuranosylcytosine]
IC50 [1, 5]: 0.85 µM | IC50 [1, 7]: 0.99 µM | catabolism via deaminase enzymes (deaminase enzymes): rapid catabolism

CCCCCCCCCCCCCCCC(=O)OC[C@H](COP(=O)(O)OP(=O)(O)OC[C@H]1O[C@@H](n2ccc(N)nc2=O)[C@@H](O)[C@@H]1O)OC(=O)CCCCCCCCCCCCCCC [araCDP-L-dipalmitin]
IC50 [1, 5]: 42.1 µM | IC50 [1, 6]: 65 µM

CCCCCCCCCCCCCCCC(=O)OC[C@H]1O[C@@H](n2ccc(N)nc2=O)[C@@H](O)[C@@H]1O [5'-O-palmitoyl-araC]
protection of parent drug from catabolic degradation (deaminase enzymes): protected the parent drug from catabolic degradation | therapeutic advantage in vivo [3]: no therapeutic advantages

CCCCC(=O)OC[C@H]1O[C@@H](n2cnc3c(N)ncnc32)[C@@H](O)[C@@H]1O [5'-O-valeryl-araA]
protection of parent drug from catabolic degradation (deaminase enzymes): protected the parent drug from catabolic degradation

CCCCCCCCCCCCCCCC(=O)OC[C@H](COP(=O)(O)OP(=O)(O)OC[C@H]1O[C@@H](n2ccc3c(N)ncnc32)[C@H](O)[C@@H]1O)OC(=O)CCCCCCCCCCCCCCC [TubercidinDP--L-dipalmitin, Tubercidin-5'-diphosphate-L-1,2-dipalmitin]
IC50 [1, 7]: 5 µM

CCCCCCCC/C=C\CCCCCCCC(=O)OC[C@H](COP(=O)(O)OP(=O)(O)OC[C@H]1O[C@@H](n2ccc(N)nc2=O)[C@@H](O)[C@@H]1O)OC(=O)CCCCCCC/C=C\CCCCCCCC [araCDP-L-diolein, 1-β-D-Arabinofuranosylcytosine-5'-diphosphate-L-1,2-diolein]
IC50 [1, 5]: 43.9 µM | IC50 [1, 6]: 62 µM

CCCCCCCCCCCCCCCC(=O)OC[C@H](COP(=O)(O)OC[C@H]1O[C@@H](n2ccc(N)nc2=O)[C@@H](O)[C@@H]1O)OC(=O)CCCCCCCCCCCCCCC [araCMP-L-dipalmitin]
solubilization by sonication [2]: resisted solubilization even when samples were mixed with several types of detergent prior to sonication

O=c1ccn([C@@H]2O[C@H](CO)[C@@H](O)[C@@H]2O)c(=O)[nH]1 [araU, 1-β-D-arabinofuranosyluracial]
appearance of metabolite in urine [4]: appears rapidly in human urine

CCCCCCCCCCCCCC(=O)OC[C@H](COP(=O)(O)OP(=O)(O)OC[C@H]1O[C@@H](n2ccc(N)nc2=O)[C@@H](O)[C@@H]1O)OC(=O)CCCCCCCCCCCCC [araCDP-L-dimyristin]
IC50 [1, 5]: 13.1 µM | IC50 [1, 6]: 15 µM
